In general, IC50 refers to the point on the concentration scale where inhibition reaches its midpoint. Read a low IC50 as inhibition by little substance.

The record followed here is patent US11999737B2, “Kinase inhibitors and related methods of use” (Duke University, priority 2014, dated 2024).

One assay has as its system RLC20 phosphorylation. The experiment in a line: Western blot of RLC20 phosphorylation in Ca2+-sensitized rabbit ileum. The conditions noted are these: HS38 50 μM. The protocol:
(§1) To examine the effect of ZIPK inhibition on sensitized force, muscle strips were stimulated with an intermediate calcium concentration solution (pCa 6.5). Once force reached a plateau, strips were Ca^2+-sensitized by the addition of the agonist carbachol (5 μM). Up to 2 μM of GTP was added together with the sensitizing agonist to compensate for possible loss of GTP during permeabilization. At the plateau of Ca-sensitized force (5-10 min upon stimulation), the ZIPK inhibitor, HS38 (50 μM) or diluent (0.1% DMSO) was added and the force relaxation time course was recorded. Tissue samples were frozen 20 min after the addition of HS38 for biochemical assays of RLC20 and MYPT1 phosphorylation.
(§2) MYPT1 and RLC20 phosphorylation: To examine the phosphorylation of MYPT1 and RLC20, rabbit ileum SM strips were treated as described above and previously reported. (Gong et al. (1995), J. Physiol.-London 486, 113-122; Kitazawa et al. (1989) J. Biol. Chem. 264, 5339-5342; Kobayashi et al. (1991) Am. J. Physiol. 260, C364-C370), Following the stimulation protocols, muscle strips were immediately frozen by immersion in −80° C. acetone with trichloroacetic acid (10% w/v) and stored at −80° C. […] Phosphorylation of MYPT1 Thr696 and of RLC20 was determined by SDS-PAGE and Western blotting. […]

The subject of assay [1] is rat caudal arterial smooth muscle (RTA). The experiment in a line: Calyculin A-induced contraction of rat caudal arterial smooth muscle (RTA) strips. The procedure:
Tissue preparation and Force Measurement for RTA smooth muscle: Caudal arteries were removed from male Sprague-Dawley rats (300-350 g) that had been anesthetized and euthanized according to protocols approved by the University of Calgary Animal Care and Use Committee. The arteries were cleaned of excess adventitia, de-endothelialized and cut into helical strips (1.5 mm×6 mm). Muscle strips were mounted on a Grass isometric force transducer (FT03C), and force was recorded. Intact tissues were treated with calyculin A (CLa, […]). At selected sampling points, muscle strips were flash-frozen in 10% (w/v) TCA, 10 mM DTT in acetone followed by 3×10 s washes in 10 mM DTT in acetone. Tissues were then lyophilized overnight. Protein was extracted from each arterial strip by incubation (16 h, 5° C.) in 0.5 mL of SDS-PAGE sample buffer.
In this case, calyculin A (CLa, 10^−7M)-induced contractions were used since inhibition of myosin phosphatase activity in RTA unmasks endogenous Ca^2+-independent LC20 kinase activities, including ZIPK. Experiments were performed with addition of inhibitors for ROK (HA-1152, 10^−6 M; GSK429286A, 10^−5M) in combination with HS-38. Combining ROK and ZIPK inhibitors had no effect on Ca^2+-sensitization (force generation or downstream ZIPK target phosphorylation).
Data were collected for RTA smooth muscle contraction in the presence and absence of HS-38, including measurements of contractile force development, and the concentration dependency of these effects. […] The t1/2 max value is defined as the time required for contractile force to reach 50% of maximal tone.
The latency period, i.e. the time from addition of calyculin A to the onset of contraction, and the half-time from the initiation of contraction to the plateau of the contractile response, were determined, in addition to the t1/2 values (the half-time from addition of calyculin A to the plateau of the contractile response) determined previously, in the absence and presence of HS-38. […] On the other hand, the steady-state level of force induced by calyculin A was unaffected by ZIPK inhibition. The results support the ability of HS38 to suppress the initiation and rate of contractile tone without altering the total force potential of the muscle.

Assay [2] has as its system MYPT1 Thr696 phosphorylation. In words: Western blot of MYPT1 Thr696 phosphorylation in Ca2+-sensitized rabbit ileum. To be noted: HS38 50 μM. The protocol:
as §1, §2
For orientation: A western blot detects proteins with antibodies after separation by electrophoresis.

Another assay concerns the target T1, DYRK2 (Homo sapiens, UniProt Q92630).
T1 sequence (Q92630 1-601): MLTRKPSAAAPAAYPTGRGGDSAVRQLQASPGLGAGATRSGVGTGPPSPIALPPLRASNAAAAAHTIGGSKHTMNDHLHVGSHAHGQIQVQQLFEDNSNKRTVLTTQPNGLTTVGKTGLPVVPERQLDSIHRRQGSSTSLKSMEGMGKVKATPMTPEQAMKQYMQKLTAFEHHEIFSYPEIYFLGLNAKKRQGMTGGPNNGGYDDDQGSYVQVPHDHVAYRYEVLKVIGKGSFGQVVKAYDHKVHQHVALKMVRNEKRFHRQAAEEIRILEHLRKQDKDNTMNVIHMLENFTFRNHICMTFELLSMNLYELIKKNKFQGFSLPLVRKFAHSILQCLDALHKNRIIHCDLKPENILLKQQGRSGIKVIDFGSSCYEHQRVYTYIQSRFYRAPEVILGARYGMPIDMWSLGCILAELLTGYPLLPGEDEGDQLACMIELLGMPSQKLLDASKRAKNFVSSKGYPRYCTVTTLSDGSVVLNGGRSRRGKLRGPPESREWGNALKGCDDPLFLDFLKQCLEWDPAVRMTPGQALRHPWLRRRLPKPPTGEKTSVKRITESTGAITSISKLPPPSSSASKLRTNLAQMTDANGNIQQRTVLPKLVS
The experiment in a line: 33P-ATP filter-binding kinase assay.

Structures are written as SMILES.

For `CC(Sc1nc2c(cnn2-c2cccc(Cl)c2)c(=O)[nH]1)C(N)=O` (centres unmarked) [HS38], in the assay on RLC20 phosphorylation, the RLC20 phosphorylation level entry is given as “significantly reduced”. In addition, in assay [1] (calyculin A), the “contractile force during the Ca2+ sensitization process” value was “concentration-dependent attenuation”. Moreover, the “t1/2max; time to reach 50% of maximal contractile force” value in assay [1] (calyculin A 10^−7 M, increasing concentrations of HS-38) is “concentration-dependent increases”. For the same compound, the “Latency (s)” value in assay [1] (calyculin A with HS-38, n = 28, mean ± SEM) was “*654.7 ± 60.6 s”. Moreover, the “% KCl contraction” value in assay [1] (steady-state force, calyculin A with HS-38, n = 28, mean ± SEM) is recorded as “**161.7 ± 8.4%”. Moreover, in assay [2], the “MYPT1 Thr696 phosphorylation level” value is recorded as “significantly reduced”. On DYRK2 (mean ± S.D., n = 2), this compound showed an IC50 of 1800 ± 600 nM. The activity at 10 µM at DYRK2 (read-out: % Activity (10 μM HS38)) amounted to 21%.
